In PMC8838936, “Simultaneous Determination of Seven Lipophilic and Hydrophilic Components in Salvia miltiorrhiza Bunge by LC-MS/MS Method and Its Application to a Transport Study in a Blood-Brain-Barrier Cell Model” (Molecules, 2022):

Tests used:
[1] = Transport study in a BBB cell model (bidirectional transwell permeability); type: in vitro ADME, Human; details: human; for efflux ratio at 120 min: ER = Papp (BL-AP)/Papp (AP-BL), BBB cell model; for Papp B→A at 120 min: hBMEC monolayer on transwell, basolateral-to-apical, within 120 min, 37 °C, Mean ± SD, n = 3
Experimental: (§1) The hBMECs cells were seeded at a density of 3 × 10^5 cells per well on the transwell plates in EMC. Apical side volumes were 0.5 mL, and the medium was changed every day. Basal side volumes were 1.5 mL, and the medium was changed every other day. The medium was changed until confluent monolayers were formed. […] TEER provides information on ion current resistance across cell monolayers related to the integrity of tight junctions between cells. When the TEER reached the maximum value, the cell monolayer was used for the transport assay.
(§2) The permeability experiments were carried out bi-directionally, with working solutions containing one test component, TSI (1.25 μg/mL), DTSI (0.15 μg/mL), CTS (1.25 μg/mL), CFA (10 μg/mL), PAL (10 μg/mL), and PCTA (20 μg/mL). Aliquots of the […] compartment were collected after several time points (15, 30, 60, and 120 min) and replaced with drug-free assay buffer. The transwell plates were incubated on an orbital shaker at 37 °C for the entire experimental time. All experiments were performed in triplicate, and withdrawn samples were stored in −80 °C fridge before LC-MS/MS analysis.
(§3) For the BBB cell model, the apparent permeability coefficient, Papp in apical-to-basolateral (AP-BL) or basolateral-to-apical (BL-AP) direction, and efflux rate of each component were subsequently calculated according to the following equation: Papp = {dQ/dt} × {1/ (A × C0)},(1) where Q is the accumulation quantity of the compound in the receiver side (μg), dQ /dt is the rate of appearance of the compound in the receiver side (μg /s), C0 is the initial concentration in the donor side […], and A is the surface area of the membrane insert (cm^2). Furthermore, efflux ratios (ER) were calculated according to the following equation: ER = Papp (BL-AP)/Papp (AP-BL),(2) where Papp (BL-AP) and Papp (AP-BL) are the Papp values in the direction basolateral-to-apical and apical-to-basolateral, respectively.

[2] = tested on: hBMEC cell monolayer (BBB cell model); test: as above; type: in vitro ADME, Human; details: BBB cell model, within 120 min
Experimental: as §1, §2, §3

[3] = tested on: endothelial cell monolayers; set-up: method as in PMID 17504224; details: facilitated efflux from the abluminal side to luminal side; cited from earlier work
[4] = tested on: BBB; set-up: method as in PMID 26683637; details: cited from earlier work
[5] = Stability of analytes in HBSS (autosampler 24 h; −80 °C 15 days); type: physicochemical; details: HBSS system
Experimental: Stability was evaluated by analyzing LQC, MQC, and HQC concentrations at autosampler for 24 h and −80 °C for 15 days with five replicates. Stability was expressed in terms of accuracy (RE) and coefficient of variation (RSD). The samples were considered stable if accuracy (RE) was within ±15% of the nominal values and precision (RSD) was less than 15%.

Stability in HBSS (in words) [5]	Structure (SMILES)	efflux ratio at 120 min [1]	Papp B→A at 120 min [1]	Absorption in the BBB model (class by Papp (AP-BL)) [2]	Transport of CTS in endothelial cell monolayers [3]	Effect on disruption of the BBB [4]
	O=C(O)/C=C/c1ccc(O)c(O)c1 [CFA, caffeic acid]	1.05	22.5 ×10⁻⁶ cm/s	easily absorbed		
	C[C@H]1COC2=C1C(=O)C(=O)c1c2ccc2c1CCCC2(C)C [CTS, cryptotanshinone]	1.03	5.12 ×10⁻⁶ cm/s	moderate absorption	polarized transport	
	Cc1cccc2c3c(ccc12)C1=C(C(=O)C3=O)[C@@H](C)CO1 [DTS I, dihydrotanshinone I]	0.779	3.62 ×10⁻⁶ cm/s	moderate absorption		
	O=Cc1ccc(O)c(O)c1 [PAL, protocatechuic aldehyde]	0.805	12.2 ×10⁻⁶ cm/s	easily absorbed		
	O=C(O)c1ccc(O)c(O)c1 [PCTA, protocatechuic acid]	0.946	41.3 ×10⁻⁶ cm/s	easily absorbed		
	Cc1coc2c1C(=O)C(=O)c1c-2ccc2c1CCCC2(C)C [TS IIA, tanshinone IIA]	0.673	0.0253 ×10⁻⁶ cm/s	difficult to be absorbed		suppress disruption of the BBB
very unstable	CCC(C)(C)C(=O)O[C@H]1C[C@@H](C)C=C2C=C[C@H](C)[C@H](CC[C@@H]3C[C@@H](O)CC(=O)O3)[C@H]21 [simvastatin]					
